Data set [1] is described as follows: Metabolic stability in pooled human liver microsomes. Particulars: pooled human liver microsomes 0.5 mg/ml, 1 μM test compound, 37° C. The format is in vitro ADME. The procedure: Pooled human liver microsomes in PBS at a concentration of 0.5 mg/ml was incubated with or without 1 mM NADPH for 70 min at 37° C. Test compound was added after 10 minutes to a final concentration of 1 μM. Samples were withdrawn at 0, 5, 15 and 60 minutes and added to test tubes containing acetonitrile, to stop the reaction, and with terfenadine, used as internal standard. After centrifugation at 10 000×g for 5 minutes the supernatant was diluted 1:1 with 1% formic acid. Samples were separated on a reverse phase column and detected by triple quadrupole MSMS (Agilant model 6540). The concentration of the parent compound at the different time points was measured with an external standard curve using terfenadine as internal standard and the initial metabolic rate in the presence or absence of NADPH calculated.

Another data set has as its target T1, CYP2D6 (Homo sapiens, UniProt P10635).
T1 construct: incubated with human liver microsomes; tissue Eurofins ITEMG232; host or cells: human liver microsomes
Description: CYP inhibition in human liver microsomes, CYP2D6. The format is in vitro ADME. To be noted: probe dextromethorphan, substrate dextromethorphan, read-out: CYP2D6 Inh %. The procedure: (§1) The following substrates were used: CYP1A phenacetin, CYP2B6 bupropion, CYP2C8 paclitaxel and amodiaquine, CYP2C9 diclofenac, CYP2C19 omeprazole, CYP2D6 dextromethorphan, CYP3A midazolam and testosterone. At the end of the incubation, the formation of metabolite was monitored by HPLC-MS/MS as the peak area response.
In general terms: Liver microsomes are vesicles of endoplasmic reticulum, rich in cytochrome P450 enzymes.

Another data set relates to CYP3A4&5. Kind of data set: CYP inhibition in human liver microsomes, CYP3A4&5 (testosterone). It is filed as in vitro ADME. Particulars: probe testosterone, substrate testosterone, read-out: CYP3A4&5 testosterone Inh %. The procedure: as §1
The target in the next data set is CYP3A4 (Homo sapiens, UniProt P08684). Description: CYP inhibition in human liver microsomes, CYP3A4 (midazolam). The format is in vitro ADME. More on the design: incubated with human liver microsomes; tissue Eurofins ITEMG232; host or cells: human liver microsomes. To be noted: probe midazolam, substrate midazolam, read-out: CYP3A4 midazolam Inh %. The procedure:
as §1

A further data set has as its target T2, CYP2C19 (Homo sapiens, UniProt P33261).
T2 construct: incubated with human liver microsomes; tissue Eurofins ITEMG232; host or cells: human liver microsomes
Kind of data set: CYP inhibition in human liver microsomes, CYP2C19. Particulars: probe omeprazole, substrate omeprazole, read-out: CYP2C19 Inh %. It is filed as in vitro ADME. The procedure: as §1

A further data set deals with T3, CYP1A (Homo sapiens, UniProt P05177).
T3 construct: incubated with human liver microsomes; tissue Eurofins ITEMG232; host or cells: human liver microsomes
T3 sequence (P05177 1-516): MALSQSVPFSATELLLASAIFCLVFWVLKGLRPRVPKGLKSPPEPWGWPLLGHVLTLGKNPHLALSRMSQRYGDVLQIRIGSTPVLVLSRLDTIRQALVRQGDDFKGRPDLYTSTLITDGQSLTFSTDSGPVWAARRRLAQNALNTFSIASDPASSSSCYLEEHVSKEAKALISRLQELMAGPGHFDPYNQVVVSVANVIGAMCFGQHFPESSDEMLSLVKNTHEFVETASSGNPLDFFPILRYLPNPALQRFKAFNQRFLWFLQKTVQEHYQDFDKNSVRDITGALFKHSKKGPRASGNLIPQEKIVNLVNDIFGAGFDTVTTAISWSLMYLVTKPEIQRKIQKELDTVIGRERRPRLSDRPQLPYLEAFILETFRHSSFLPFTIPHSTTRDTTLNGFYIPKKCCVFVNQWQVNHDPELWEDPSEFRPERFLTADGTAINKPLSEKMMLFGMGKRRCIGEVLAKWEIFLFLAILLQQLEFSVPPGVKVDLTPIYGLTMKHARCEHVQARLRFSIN
Description: CYP inhibition in human liver microsomes, CYP1A. Particulars: probe phenacetin, substrate phenacetin, read-out: CYP1A Inh %. The format is in vitro ADME. The procedure:
as §1

In a further data set the target is CYP2C9 (Homo sapiens, UniProt P11712). Description: CYP inhibition in human liver microsomes, CYP2C9. The format is in vitro ADME. More on the design: incubated with human liver microsomes; tissue Eurofins ITEMG232; host or cells: human liver microsomes. To be noted: probe diclofenac, substrate diclofenac, read-out: CYP2C9 Inh %. The procedure: as §1
A further data set addresses T4, CYP2B6 (Homo sapiens, UniProt P20813).
T4 construct: incubated with human liver microsomes; tissue Eurofins ITEMG232; host or cells: human liver microsomes
T4 sequence (P20813 1-491): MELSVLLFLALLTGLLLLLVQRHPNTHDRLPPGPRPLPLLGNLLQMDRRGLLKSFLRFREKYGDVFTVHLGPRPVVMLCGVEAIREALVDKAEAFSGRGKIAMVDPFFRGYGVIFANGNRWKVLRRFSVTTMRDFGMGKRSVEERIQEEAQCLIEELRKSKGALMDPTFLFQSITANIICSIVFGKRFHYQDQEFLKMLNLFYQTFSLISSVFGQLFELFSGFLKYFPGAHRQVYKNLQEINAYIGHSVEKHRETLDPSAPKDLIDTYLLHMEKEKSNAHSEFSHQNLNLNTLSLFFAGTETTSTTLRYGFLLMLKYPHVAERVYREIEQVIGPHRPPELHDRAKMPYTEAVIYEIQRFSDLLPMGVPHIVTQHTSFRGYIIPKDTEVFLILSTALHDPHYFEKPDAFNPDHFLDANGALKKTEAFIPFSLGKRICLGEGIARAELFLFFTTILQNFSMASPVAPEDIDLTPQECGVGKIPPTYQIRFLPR
Kind of data set: CYP inhibition in human liver microsomes, CYP2B6. It is filed as in vitro ADME. To be noted: probe bupropion, substrate bupropion, read-out: CYP2B6 Inh %. The procedure: as §1

A further data set has as its target T5, CYP2C8 (Homo sapiens, UniProt P10632).
T5 construct: incubated with human liver microsomes; tissue Eurofins ITEMG232; host or cells: human liver microsomes
T5 sequence (P10632 1-490): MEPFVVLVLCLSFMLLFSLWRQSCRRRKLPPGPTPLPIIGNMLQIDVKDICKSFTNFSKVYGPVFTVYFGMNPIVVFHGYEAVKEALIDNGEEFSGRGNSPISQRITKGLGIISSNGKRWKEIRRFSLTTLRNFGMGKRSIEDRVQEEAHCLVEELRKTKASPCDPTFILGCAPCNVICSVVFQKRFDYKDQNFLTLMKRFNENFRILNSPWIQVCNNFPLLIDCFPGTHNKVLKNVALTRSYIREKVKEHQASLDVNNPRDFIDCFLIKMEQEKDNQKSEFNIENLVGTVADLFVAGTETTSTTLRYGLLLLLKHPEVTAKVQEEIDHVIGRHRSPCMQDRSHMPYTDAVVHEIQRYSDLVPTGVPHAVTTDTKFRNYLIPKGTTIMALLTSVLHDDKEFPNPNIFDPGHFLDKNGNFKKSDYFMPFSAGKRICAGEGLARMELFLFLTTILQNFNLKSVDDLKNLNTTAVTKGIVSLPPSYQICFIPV
Kind of data set: CYP inhibition in human liver microsomes, CYP2C8. The format is in vitro ADME. To be noted: probe paclitaxel and amodiaquine, substrate paclitaxel and amodiaquine, read-out: CYP2C8 Inh %. The procedure: as §1

Data set [2] addresses T6, human recombinant AT2 receptor (Homo sapiens, UniProt P50052).
T6 construct: purchased Eurofins ITEM26
T6 sequence (P50052 1-363): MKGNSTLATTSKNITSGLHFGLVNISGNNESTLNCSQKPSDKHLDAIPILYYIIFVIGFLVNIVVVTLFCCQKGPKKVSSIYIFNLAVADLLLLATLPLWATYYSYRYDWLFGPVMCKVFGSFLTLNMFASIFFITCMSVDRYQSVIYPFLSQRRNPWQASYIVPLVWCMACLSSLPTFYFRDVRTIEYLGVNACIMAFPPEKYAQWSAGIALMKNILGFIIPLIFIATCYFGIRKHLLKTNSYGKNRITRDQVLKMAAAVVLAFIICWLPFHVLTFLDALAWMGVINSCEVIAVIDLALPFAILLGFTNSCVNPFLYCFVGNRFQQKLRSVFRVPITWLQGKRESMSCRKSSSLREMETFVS
Kind of data set: Binding to AT2 receptor, radiometric scintillation assay (Eurofins). To be noted: ligand 125I CGP 42112A, tested at 1, 10, 100 and 1000 nM. The procedure: Compounds were evaluated for binding to the human recombinant AT2 and AT1 receptor according to Eurofins protocol ITEM26 and ITEM24 using a radiometric scintillation assay.

Where [3] appears, read: with 1 mM NADPH, read-out: T1/2, + NaDPH.
The mark [4] stands for this setting: without NADPH, read-out: T1/2, no NaDPH.

Read-outs that look alike come from different tables or passages of the source.

Chain of CYP3A4 (P08684 whole entry): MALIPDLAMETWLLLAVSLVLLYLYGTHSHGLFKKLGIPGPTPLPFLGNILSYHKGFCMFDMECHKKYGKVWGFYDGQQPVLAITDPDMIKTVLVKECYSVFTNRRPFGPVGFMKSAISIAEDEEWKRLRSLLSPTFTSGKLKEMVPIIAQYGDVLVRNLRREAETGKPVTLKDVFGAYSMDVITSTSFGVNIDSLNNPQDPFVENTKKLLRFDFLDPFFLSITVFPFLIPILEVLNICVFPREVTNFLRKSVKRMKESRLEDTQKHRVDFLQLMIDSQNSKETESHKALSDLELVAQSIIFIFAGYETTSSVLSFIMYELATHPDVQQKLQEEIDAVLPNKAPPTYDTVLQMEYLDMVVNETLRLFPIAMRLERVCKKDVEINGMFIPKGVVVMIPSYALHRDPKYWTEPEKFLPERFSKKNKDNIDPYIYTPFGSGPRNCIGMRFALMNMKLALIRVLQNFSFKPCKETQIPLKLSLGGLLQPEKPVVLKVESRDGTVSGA
Chain of CYP2C9 (P11712 whole entry): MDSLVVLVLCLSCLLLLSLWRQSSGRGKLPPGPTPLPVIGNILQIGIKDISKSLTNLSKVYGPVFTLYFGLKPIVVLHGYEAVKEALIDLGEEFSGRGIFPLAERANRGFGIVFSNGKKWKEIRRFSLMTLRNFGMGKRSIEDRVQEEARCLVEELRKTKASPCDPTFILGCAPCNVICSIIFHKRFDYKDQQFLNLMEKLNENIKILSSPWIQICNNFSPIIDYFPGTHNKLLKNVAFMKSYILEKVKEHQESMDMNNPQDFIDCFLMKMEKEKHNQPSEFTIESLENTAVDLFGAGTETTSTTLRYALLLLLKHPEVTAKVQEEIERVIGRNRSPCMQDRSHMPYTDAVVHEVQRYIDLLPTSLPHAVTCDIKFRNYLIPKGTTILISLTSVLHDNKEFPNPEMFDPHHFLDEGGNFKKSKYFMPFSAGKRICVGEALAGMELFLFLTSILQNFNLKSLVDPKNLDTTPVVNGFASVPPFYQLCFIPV
T2 sequence (P33261 whole entry): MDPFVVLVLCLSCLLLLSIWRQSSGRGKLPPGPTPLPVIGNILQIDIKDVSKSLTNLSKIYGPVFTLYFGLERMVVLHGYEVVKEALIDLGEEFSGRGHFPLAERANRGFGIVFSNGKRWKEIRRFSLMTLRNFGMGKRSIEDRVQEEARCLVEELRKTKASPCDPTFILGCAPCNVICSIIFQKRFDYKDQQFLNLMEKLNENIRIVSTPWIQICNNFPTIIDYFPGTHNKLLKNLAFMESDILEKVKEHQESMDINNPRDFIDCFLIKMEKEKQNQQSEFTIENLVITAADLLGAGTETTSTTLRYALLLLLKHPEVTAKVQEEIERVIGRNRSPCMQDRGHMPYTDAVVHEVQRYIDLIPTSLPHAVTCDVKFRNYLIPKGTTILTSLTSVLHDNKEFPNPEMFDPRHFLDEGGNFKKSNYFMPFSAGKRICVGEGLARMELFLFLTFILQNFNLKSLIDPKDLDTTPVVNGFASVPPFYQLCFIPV
T1 sequence (P10635 whole entry): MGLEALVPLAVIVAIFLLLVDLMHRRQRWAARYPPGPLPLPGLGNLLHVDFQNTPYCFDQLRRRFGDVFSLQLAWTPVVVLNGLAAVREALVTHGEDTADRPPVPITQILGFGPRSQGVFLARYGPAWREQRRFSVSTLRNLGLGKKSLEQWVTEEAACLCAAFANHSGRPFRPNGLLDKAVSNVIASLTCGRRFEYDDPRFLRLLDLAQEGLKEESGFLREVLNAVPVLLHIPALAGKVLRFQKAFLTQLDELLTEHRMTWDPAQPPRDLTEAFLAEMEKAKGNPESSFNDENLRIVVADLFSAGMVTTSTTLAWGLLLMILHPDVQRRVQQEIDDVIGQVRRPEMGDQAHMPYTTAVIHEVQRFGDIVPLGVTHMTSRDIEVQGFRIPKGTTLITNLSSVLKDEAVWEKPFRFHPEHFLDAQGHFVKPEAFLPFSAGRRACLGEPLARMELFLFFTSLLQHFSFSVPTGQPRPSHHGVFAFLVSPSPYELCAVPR

Turning to `Cc1nccn1Cc1ccc(-c2cc(CC(C)C)sc2S(=O)(=O)NC(=O)NCCC(F)(F)F)cc1` [Example 3, 3-(5-isobutyl-3-{p-[(2-Methyl-1H-imidazol-1-yl)methyl]phenyl}-2-thienylsulfonyl)-1-(3,3,3-trifluoropropyl)-urea], the half-life at 1 μM in data set [1] (setting [3]) and in data set [1] (setting [4]) was above 1 h in each case. Also, the inhibition at 10 µM at CYP2D6 was 5.5%; in the data set with CYP3A4&5 it was 8.2%; at CYP3A4, 4.1%; on CYP2C19 it was 37.3%; at CYP1A, -4.2%; on CYP2C9, 21.6%. The inhibition at 10 µM on CYP2B6 amounted to 9.9%; at CYP2C8 it was 25.3%.

With `Cc1cn(Cc2ccc(-c3cc(CC(C)C)sc3S(=O)(=O)NC(=O)NCCC(F)(F)F)cc2)c(C)n1` [Example 8, 3-(3-{p-[(2,4-Dimethyl-1H-imidazol-1-yl)methyl]phenyl}-5-isobutyl-2-thienylsulfonyl)-1-(3,3,3-trifluoropropyl)urea], the half-life at 1 μM in data set [1] (setting [3]) is 0.767 h; in data set [1] (setting [4]) it was above 1 h. The inhibition at 10 µM at CYP2D6 is 0%; with CYP3A4&5 it was 29.8%; on CYP3A4, 17.5%; at CYP2C19, 95.8%; at CYP1A, 21.2%; on CYP2C9, 24%. Moreover, the inhibition at 10 µM at CYP2B6 worked out at 18.8%; at CYP2C8, 60.2%.

For the compound `CCc1nccn1Cc1ccc(-c2cc(CC(C)C)sc2S(=O)(=O)NC(=O)NCc2ccccn2)cc1` [Example 9, 3-(3-{p-[(2-Ethyl-1H-imidazol-1-yl)methyl]phenyl}-5-isobutyl-2-thienylsulfonyl)-1-[(2-pyridyl)methyl]urea], the half-life at 1 μM in [1] (setting [3]) and in [1] (setting [4]) was above 1 h each time. Also, the inhibition at 10 µM on CYP2D6 is 24%; in the data set with CYP3A4&5, 17%; at CYP3A4 it was -19%; at CYP2C19, 18%; at CYP1A it was -9%; at CYP2C9, 28%. Further, the inhibition at 10 µM on CYP2B6 was 0%; on CYP2C8, 52%.

Take `Cc1nccn1Cc1ccc(-c2cc(CC(C)C)sc2S(=O)(=O)NC(=O)NCc2ccccc2)cc1F` [Example 12, 1-Benzyl-3-(3-{3-fluoro-4-[(2-methyl-1H-imidazol-1-yl)methyl]phenyl}-5-isobutyl-2-thienylsulfonyl)urea]: the inhibition at 10 µM on CYP2D6 came to 58%; with CYP3A4&5, 24%; on CYP3A4, 32%; at CYP2C19, 62%; on CYP1A, 4%; at CYP2C9, 64%. Also, the results for the inhibition at 10 µM on CYP2B6 and on CYP2C8 were 33% and 51%, respectively.

Broadly, the IC50 is the concentration that gives 50% inhibition. As for `Cc1nccn1Cc1ccc(-c2cc(CC(C)C)sc2S(=O)(=O)NC(=O)NCCC(F)(F)F)c(F)c1` [Example 26, 3-(3-{2-Fluoro-4-[(2-methyl-1H-imidazol-1-yl)methyl]phenyl}-5-isobutyl-2-thienylsulfonyl)-1-(3,3,3-trifluoropropyl)urea], the half-life at 1 μM in data set [1] (setting [3]) and in data set [1] (setting [4]) was above 1 h each time. The IC50 in data set [2] was found to be 0.025 µM.

Take `Cc1nccn1Cc1ccc(-c2cc(CC(C)C)sc2S(=O)(=O)NC(=O)NCC(F)(F)F)c(F)c1` [Example 27, 3-(3-{2-Fluoro-4-[(2-methyl-1H-imidazol-1-yl)methyl]phenyl}-5-isobutyl-2-thienylsulfonyl)-1-(2,2,2-trifluoroethyl)urea]: the IC50 in [2] was determined as 0.061 µM.

As to `Cc1nccn1Cc1ccc(-c2cc(CC(C)C)sc2S(=O)(=O)NC(=O)NCCCF)cc1` [Example 28, 1-(3-Fluoropropyl)-3-(5-isobutyl-3-{p-[(2-methyl-1H-imidazol-1-yl)methyl]phenyl}-2-thienylsulfonyl)urea], the half-life at 1 μM in data set [1] (setting [3]) and in data set [1] (setting [4]) was above 1 h each time. Also, the IC50 in data set [2] amounted to 0.032 µM.

Regarding `Cc1nccn1Cc1ccc(-c2cc(CC(C)C)sc2S(=O)(=O)NC(=O)NCCC(F)F)cc1` [Example 29, 1-(3,3-Difluoropropyl)-3-(5-isobutyl-3-{p-[(2-methyl-1H-imidazol-1-yl)methyl]phenyl}-2-thienylsulfonyl)urea], in [2], the IC50 was 0.033 µM.

(Values after US12435072B2, “Compounds” (Vicore Pharma AB, priority 2019, dated 2025).)
